This is an account of results in patent publication US20100285990A1, “NEURITE OUTGROWTH AS AN ASSAY FOR MEMORY ENHANCING COMPOUNDS” (priority 2007, published 2010).

The subject of one data set is NS1 cells. Description: Neurite outgrowth assay in Neuroscreen 1 (NS1) cells. The class given is cell-based. As to conditions: for number of branch points: FIG. 5B. The protocol: The effect of CREB enhancers on neurite outgrowth in NS1 cells was assayed. On-target siRNAs (Dharmacon Inc., Lafayette, USA) were used for in vitro testing (neurite outgrowth in NS 1 cells). Neuroscreen 1 (NS1) cells (Cellomics Inc.) were transfected according to the manufactures specification using Dharmafect 3.
Neuroscreen 1 (NS1) cells were cultured on collagen type I coated 75 cm^2 plastic flasks (Biocoat, Becton Dickinson) in a humidified incubator at 37° C. in 5% CO2. Cells were cultured in RPMI complete cell culture medium (Cambrex) supplemented with 10% heat-inactivated horse serum (Invitrogen), 5% heat-inactivated fetal bovine serum (Cellgro), and 2 mM L-glutamine (Cambrex). For expansion, the cells were trypsinized and split at 80% confluence. The cell culture media was changed every 2 to 3 days.
NS1 cells were harvested as if they were being passaged and then counted using a Coulter counter (Becton Dickinson Coulter Z1). Cells were seeded in 96-well collagen I coated plates at a density of 2000 cells per well in volume of 200 μl. RPMI media was supplemented with 200 ng/ml nerve growth factor (NGFβ, Sigma). NS 1 cells were incubated for 72 hours to allow differentiation to a neuronal phenotype. NGFβ was then diluted to 50 ng/ml and the cells were treated with siRNA or compound at the indicated doses, respectively.
Neurite outgrowth assays were performed using the Cellomics Arrayscan II Vti HCS scanner. Cells were stained using the HitKit™ HCS reagent kit (Cellomics) according to the manufactures specifications. The assay is based on immunoflourescence using an antibody that has been validated to specifically label both neurites and neuronal cell bodies. Briefly, cells were fixed in 3.7% formaldehyde and nuclei stained with Hoechst dye. Cells were then washed in neurite outgrowth buffer and neurites stained with Cellomics' proprietary primary antibody for neurite outgrowth high content screening. After 1 hour of incubation with the primary antibody, the cells were washed again and then incubated with fluorescently labeled secondary antibody solution for 1 hour. Antibody-stained 96-well plates were store at 4° C. in the dark until scanning. Plates were scanned using Cellomics ArrayScan II Vti HCS scanner. The neurite outgrowth assay uses two channels to carry out the scan. Channel 1 detects the Hoechst Dye and is used by the software to identify cells and for automated focusing. Channel 2 detects the FITC fluorescence of the secondary antibody and is used by the software to calculate all data generated in reference to neurites.

Another data set concerns mice. Briefly: Contextual fear conditioning (freezing behavior) for long term memory. The class given is in vivo, mouse. As to the method:
Young-adult (10-12 weeks old) C57BL16 male mice (Taconic, N.Y.) were used for biochemistry and behavioral experiments. Upon arrival, mice were group-housed (5 mice) in standard laboratory cages and maintained on a 12:12 hours light-dark cycle. The experiments were always conducted during the light phase of the cycle. The day before the initiation of the experiment, mice were single housed in individual cages and maintained so till the end of the experiment. With the exception of training and testing times, the mice had ad lib access to food and water.
To assess contextual memory, a standardized contextual fear conditioning task (Bourtchuladze, et al., Cell 79(1):59-68 (1994)) was used. On the training day, the mouse was placed into the conditioning chamber (Med Associates, Inc., VA) for 2 minutes before the onset of the unconditioned stimulus (US), a 0.5 mA foot shock of 2 seconds duration. The US was repeated with a 1 minute inter-trial interval between shocks. After the last training trial, the mice were left in the conditioning chamber for another 30 sec and were then placed back in their home cage. Memory retention was tested one or four days after training. Results were identical for both time points. The mouse was placed into the same training chamber and conditioning was assessed by scoring freezing behavior, as defined by the complete lack of movement. Total testing time lasted 3 minutes. The proceeding of each experiment was filmed. After each experimental subject, the experimental apparatus was thoroughly cleaned with 75% ethanol, water, dried, and ventilated.
Mice were trained with one, two, five or ten trials of contextual conditioning. Four days later contextual memory was tested by scoring freezing behavior. […] Next, mice received weak training (two trials) to induce submaximal memory, or strong training (five trials) to induce maximum memory. Directly after training, the CREB enhancer Rolipram or vehicle was injected into the hippocampus. Contextual memory was tested by scoring freezing behavior four days after training.
For intrahippocampal Rolipram injection or Gpr12 siRNA treatment, mice were anesthetized with 20 mg/kg Avertin and implanted with a 33-gauge guide cannula bilateraly into the dorsal hippocampus (coordinates: A=−1.8 mm, L=+/−1.5 mm to a depth of 1.2 mm) (Franklin and Paxinos, 1997). Five to nine days after recovery from surgery, animals were injected with drug or vehicle control. […]
To assess contextual memory, a standardized contextual fear conditioning task (Bourtchuladze, et al, Cell 79(1):59-68 (1994)) was used. […] The mouse was placed into the same training chamber and conditioning was assessed by scoring freezing behavior, as defined by the complete lack of movement. […]

Data set [1] deals with mouse hippocampal neurons. Description: Neurite outgrowth assay in mouse hippocampal neurons. The class given is cell-based. The protocol:
Mouse hippocampal neurons were cultured for three days and then treated with HT-2175 or Rolipram for 24 hours. […] MEAN+/−SEM of eight experimental replicate wells (each measuring neurite length of at least 100 neurons) is shown. […] Mice were treated with HT-2175 or vehicle and then trained in contextual conditioning.
Cryo-preserved NS 1 neurons were purchased from the University of Ottawa. Neurons were cultured on poly-D-lysine coated 96 well plates in serum free Neurobasal medium supplemented with 2% B27, 500 μM L-glutamine, and 1 mM pyruvate. Plating density was 20,000 neurons per well. For neurite outgrowth assays, neurons were cultured for 2-3 days and then treated for 24 hours with Rolipram, HT-2175, or HT-2157, respectively.

A further data set deals with CREB pathway. Description: CRE-luciferase reporter assay of CREB activation in Neuro2A cells. The class given is cell-based. As to conditions: p<0.001. From the text: CREB activity assays were constructed. Neuro2A cells were transfected with a CREB expressing or control vectors using standard molecular biology techniques. CRE-luciferase activity was monitored in the presence or absence of Forskolin ([…]). CREB over-expression led to an increase in the activation of the CRE-reporter construct (n=3 per group, * indicates p<0.05). CRE-luciferase reporter thus measures activation of the CREB pathway. In FIG. 1B, the effect of Rolipram on CREB-activation is shown. Neuro2A cells were treated with the PDE4 inhibitor Rolipram and CREB activation monitored via CRE-liciferase activation.
The effect of Rolipram on CREB-activation was assayed in the presence of 0.5 μM Forskolin. Neuro2A cells were treated with the PDE4 inhibitor Rolipram and CREB activation monitored via CRE-liciferase activation in the presence of 0.5 μM Forskolin.
In general terms: Reporter assays use an easily measured gene product as a stand-in for the process of interest.

Where [2] appears, read: siRNA treatment 48 hours, compared to vehicle alone.

Take “non-targeting control siRNA: 21mer non-targeting siRNA used as control; SEQ ID NO: 3 and 4 (chain 1 UAGCGACUAAACACAUCAAUU; chain 2 UUGAUGUGUUUAGUCGCUAUU; chemically modified siSTABLE siRNA, pattern not given here)”: the “number of branch points” value in the data set with NS1 cells (siRNA treatment 48 hours) is on record as “had no effect on branch points”. The neurite length entry in the data set with NS1 cells (setting [2]) is reported as “had no effect on neurite outgrowth”; with NS1 cells (siRNA treatment 48 hours, compared to vehicle alone, listed as Non-targeting control siRNA) it was “had no effect on neurite length”.
Take `O=C1C(=Nc2cccc(C(F)(F)F)c2)c2ccccc2N1c1ccccc1` [HT-2157]: the contextual memory entry with mice (contextual fear conditioning with two trials, FIG. 6D) is “dose dependently facilitates contextual memory”. Moreover, in the data set with NS1 cells (FIG. 6A), the “total neurite length per cell” value is recorded as “facilitates neurite outgrowth”. In addition, the “number of branch points per dendrite” value in the data set with NS1 cells (FIG. 6B) is reported as “facilitates neurite outgrowth”. Besides, in data set [1] (mouse hippocampal neurons, FIG. 6C), the “number of branch points” value is given as “dose-dependently facilitates neurite outgrowth”.
Regarding `COc1ccc(C2CNC(=O)C2)cc1OC1CCCC1` (centres unmarked) [Rolipram], the “CREB activation monitored via CRE-luciferase activation” value in the data set on CREB pathway (FIG. 1B, n=8 per group) is listed as “activates CREB-dependent transcription”; with CREB pathway (in the presence of 0.5 μM Forskolin), “activates CREB-dependent transcription”. For the same compound, the “contextual memory (freezing behavior)” value in the data set on mice (strong training (five trials), injected into the hippocampus directly after training, tested four days after training) was “has no effect on maximal memory”; in the data set with mice (weak training (two trials), injected into the hippocampus directly after training, tested four days after training), “dose-dependently facilitates submaximal contextual memory”. Besides, the neurite branch points result with NS1 cells (increasing doses in the presence of 5 μM Forskolin) was “dose dependently increase neurite outgrowth”. Besides, the neurite length entry in the data set on NS1 cells (increasing doses in the presence of 5 μM Forskolin, FIG. 3B) was “dose dependently increase neurite outgrowth”. The “branch points per neurite” value in data set [1] (neurons cultured three days, treated 24 hours, FIG. 4A) is “facilitate neurite outgrowth”.
“Gpr12 siRNA: siRNA against Gpr12; sense GAGGCACGCCCAUC AGAUAUU (SEQ ID NO: 1), anti-sense UAUCUGAUGGGCGUGCCUCUU (SEQ ID NO: 2) (sense GAGGCACGCCCAUCAGAUAUU; chemically modified siSTABLE siRNA, pattern not given here)”: in the data set with mice (siRNA injected repeatedly into hippocampus, weak training (two trials), tested 24 hours later, FIG. 5C), the “contextual memory (freezing behavior)” value was “facilitates contextual memory”. The “number of branch points” value in the data set with NS1 cells (siRNA treatment 48 hours) is “significantly enhanced neurite outgrowth”. Moreover, in the data set on NS1 cells (setting [2]), the neurite length entry is on record as “significantly enhanced neurite outgrowth”.
